Data: US8859580B2 (Boehringer Ingelheim International GmbH, priority 2007, dated 2014)
pIC50: −log10 of the molar value.

target: T1, 11β-HSD1 (Homo sapiens, UniProt P28845); experiment: In vitro inhibition of 11β-HSD1, HTRF detection of cortisol generated from cortisone by human liver microsomes; type: biochemical; conditions: 11β-HSD IC50 (nM), 1 hour at 37° C., pH 6.0, NADPH 200 μM, cortisone 80 nM, inhibition relative to carbenoxolone signal
T1 construct: detecting cortisol generated from cortisterone by human liver microsomes; from tissue; host or cells: human liver microsomes
T1 sequence (P28845 whole entry): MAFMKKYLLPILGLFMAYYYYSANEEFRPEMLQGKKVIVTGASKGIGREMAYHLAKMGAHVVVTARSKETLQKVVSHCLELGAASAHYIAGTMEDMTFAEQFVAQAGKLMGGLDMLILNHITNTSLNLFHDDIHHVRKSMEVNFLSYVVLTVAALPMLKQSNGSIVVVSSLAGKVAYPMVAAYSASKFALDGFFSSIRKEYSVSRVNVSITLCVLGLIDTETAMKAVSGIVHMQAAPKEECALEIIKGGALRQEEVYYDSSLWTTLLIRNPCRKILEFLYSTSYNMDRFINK
Outline: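 Cortisol formed from cortisone by human liver microsomes quantified by competitive HTRF immunoassay (XL665-cortisol, Eu-cryptate anti-cortisol antibody), 2 h detection, Em665/Em615 ratio converted via cortisol calibration curve. Percent inhibition relative to carbenoxolone signal; IC50 from curves.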

Row | Compound | IC50 [nM]
1 | CC1(C)[C@H]2Cc3c(O)cccc3[C@]1(C)CCN2C(=O)c1csc2ccccc12 [Example 217, Benzo[b]thiophen-3-yl-[(2R,6S)-10-hydroxy-6,11,11-trimethyl-1,2,5,6-tetrahydro-4H-2,6-methano-benzo[d]azocin-3-yl]-methanone] | 410
2 | CC1(C)[C@H]2Cc3c(O)cccc3[C@]1(C)CCN2C(=O)c1cncn1-c1ccccc1 [Example 218, [(2R,6S)-10-Hydroxy-6,11,11-trimethyl-1,2,5,6-tetrahydro-4H-2,6-methano-benzo[d]azocin-3-yl]-(3-phenyl-3H-imidazol-4-yl)-methanone] | 2710
3 | CC1(C)[C@H]2Cc3c(O)cccc3[C@]1(C)CCN2C(=O)c1n[nH]c2c1CCCC2 [Example 219, [(2R,6S)-10-Hydroxy-6,11,11-trimethyl-1,2,5,6-tetrahydro-4H-2,6-methano-benzo[d]azocin-3-yl]-(4,5,6,7-tetrahydro-1H-indazol-3-yl)-methanone] | 160
4 | CC1(C)[C@H]2Cc3c(O)cccc3[C@]1(C)CCN2C(=O)c1n[nH]c2c1CCC2 [Example 220, [(2R,6S)-10-Hydroxy-6,11,11-trimethyl-1,2,5,6-tetrahydro-4H-2,6-methano-benzo[d]azocin-3-yl]-(1,4,5,6-tetrahydro-cyclopentapyrazol-3-yl)-methanone] | 549
5 | CC1(C)[C@H]2Cc3c(O)cccc3[C@]1(C)CCN2C(=O)c1cc(-c2ccccc2)n[nH]1 [Example 221, [(2R,6S)-10-Hydroxy-6,11,11-trimethyl-1,2,5,6-tetrahydro-4H-2,6-methano-benzo[d]azocin-3-yl]-(5-phenyl-2H-pyrazol-3-yl)-methanone] | 2430
6 | CCn1cc(C(=O)N2CC[C@@]3(C)c4cccc(O)c4C[C@@H]2C3(C)C)c2ccccc21 [Example 222, (1-Ethyl-1H-indol-3-yl)-[(2R,6S)-10-hydroxy-6,11,11-trimethyl-1,2,5,6-tetrahydro-4H-2,6-methano-benzo[d]azocin-3-yl]-methanone] | 124
7 | C[C@@H]1[C@H]2Cc3cc(C#N)c(O)cc3[C@]1(C)CCN2C(=O)c1ccc2nc[nH]c2c1 [Example 223, (2R,6R,11S)-3-(3H-Benzoimidazole-5-carbonyl)-8-hydroxy-6,11-dimethyl-1,2,3,4,5,6-hexahydro-2,6-methano-benzo[d]azocine-9-carbonitrile] | 106
8 | C[C@@H]1[C@H]2Cc3cc4nc[nH]c4cc3[C@]1(C)CCN2C(=O)c1ccc2nc[nH]c2c1 [Example 224, (3H-Benzoimidazol-5-yl)-[(6R,10R,12S)-5,6,7,8,9,10-hexahydro-10,12-dimethyl-6,10-methano-1H-imidazo[5,4-i][3]benzazocin-7-yl]-methanone] | 21
9 | Cc1cc(C(=O)N2CC[C@@]3(C)c4cccc(O)c4C[C@@H]2C3(C)C)cc2nc[nH]c12 [Example 225, [(2R,6S)-10-Hydroxy-6,11,11-trimethyl-1,2,5,6-tetrahydro-4H-2,6-methano-benzo[d]azocin-3-yl]-(7-methyl-1H-benzoimidazol-5-yl)-methanone] | 98
10 | N#CC12CCN(C(=O)c3ccc4nc[nH]c4c3)C(Cc3ccc(O)cc31)C2 (stereo not shown) [Example 226, 3-(3H-Benzoimidazole-5-carbonyl)-8-hydroxy-2,3,4,5-tetrahydro-1H-2,6-methano-benzo[d]azocine-6-carbonitrile] | 1410
11 | C[C@@H]1[C@H]2Cc3cc(C#N)ccc3[C@]1(C)CCN2C(=O)c1ccc2nc[nH]c2c1 [Example 227, (2R,6R,11S)-3-(3H-Benzoimidazole-5-carbonyl)-6,11-dimethyl-1,2,3,4,5,6-hexahydro-2,6-methano-benzo[d]azocine-9-carbonitrile] | 25
12 | C[C@@H]1[C@H]2Cc3ccc(-c4nnn[nH]4)cc3[C@]1(C)CCN2C(=O)c1ccc2nc[nH]c2c1 [Example 228, (2R,6R,11S)-(3H-Benzoimidazol-5-yl)-[6,11-dimethyl-8-(1H-tetrazol-5-yl)-1,2,5,6-tetrahydro-4H-2,6-methano-benzo[d]azocin-3-yl]-methanone] | 236
13 | CC(C)(O)c1ccc2c(c1)[C@]1(C)CCN(C(=O)c3ccc4nc[nH]c4c3)[C@H](C2)C1(C)C [Example 229, (3H-Benzoimidazol-5-yl)-[(2R,6S)-8-(1-hydroxy-1-methyl-ethyl)-6,11,11-trimethyl-1,2,5,6-tetrahydro-4H-2,6-methano-benzo[d]azocin-3-yl]-methanone] | 68
14 | Cc1nc(-c2ccc3c(c2)[C@]2(C)CCN(C(=O)c4ccc5nc[nH]c5c4)[C@H](C3)[C@H]2C)no1 [Example 231, (3H-Benzoimidazol-5-yl)-[(2R,6R,11S)-6,11-dimethyl-8-(5-methyl-[1,2,4]oxadiazol-3-yl)-1,2,5,6-tetrahydro-4H-2,6-methano-benzo[d]azocin-3-yl]-methanone] | 146
15 | C[C@@H]1[C@H]2Cc3ccc(-c4ncon4)cc3[C@]1(C)CCN2C(=O)c1ccc2nc[nH]c2c1 [Example 232, (3H-Benzoimidazol-5-yl)-[(2R,6R,11S)-6,11-dimethyl-8-[1,2,4]oxadiazol-3-yl-1,2,5,6-tetrahydro-4H-2,6-methano-benzo[d]azocin-3-yl]-methanone] | 132
16 | CC1(C)[C@H]2Cc3ccc(S(C)(=O)=O)cc3[C@]1(C)CCN2C(=O)c1ccc2nc[nH]c2c1 [Example 233, (3H-Benzoimidazol-5-yl)-[(2R,6S)-8-methanesulfonyl-6,11,11-trimethyl-1,2,5,6-tetrahydro-4H-2,6-methano-benzo[d]azocin-3-yl)-methanone] | 144
17 | CC1(C)[C@H]2Cc3c(cccc3S(C)(=O)=O)[C@]1(C)CCN2C(=O)c1ccc2nc[nH]c2c1 [Example 234, (3H-Benzoimidazol-5-yl)-[(2R,6S)-10-methanesulfonyl-6,11,11-trimethyl-1,2,5,6-tetrahydro-4H-2,6-methano-benzo[d]azocin-3-yl)-methanone] | 3120
18 | CC1(C)[C@H]2Cc3cc4nccnc4cc3[C@]1(C)CCN2C(=O)c1ccc2nc[nH]c2c1 [Example 235, (3H-Benzoimidazol-5-yl)-[(7R,11S)-6,7,8,9,10,11-hexahydro-11,13,13-trimethyl-6,10-methano-pyrazino[2,3-i][3]benzazocin-8-yl]-methanone] | 95
19 | CN(C)S(=O)(=O)c1ccc2c(c1)C[C@H]1N(C(=O)c3ccc4nc[nH]c4c3)CC[C@]2(C)C1(C)C [Example 237, (2R,6S)-3-(3H-Benzoimidazole-5-carbonyl)-6,11,11-trimethyl-1,2,3,4,5,6-hexahydro-2,6-methano-benzo[d]azocine-9-sulfonic acid dimethylamide] | 916
20 | Cc1nc2cc3c(cc2[nH]1)[C@]1(C)CCN(C(=O)c2ccc4nc[nH]c4c2)[C@H](C3)C1(C)C [Example 238, (3H-Benzoimidazol-5-yl)-[(6R,10S)-5,6,7,8,9,10-hexahydro-2,10,12,12-tetramethyl-6,10-methano-1H-imidazo[5,4-i][3]benzazocin-7-yl]-methanone] | 24
21 | CC1(C)[C@H]2Cc3cc4nc[nH]c4cc3[C@]1(C)CCN2C(=O)c1ccc2nc[nH]c2c1 [Example 239, (3H-Benzoimidazol-5-yl)-[(6R,10S)-5,6,7,8,9,10-hexahydro-10,12,12-trimethyl-6,10-methano-1H-imidazo[5,4-i][3]benzazocin-7-yl]-methanone] | 24
22 | Cn1cnc2cc3c(cc21)C[C@H]1N(C(=O)c2ccc4nc[nH]c4c2)CC[C@]3(C)C1(C)C [Example 240, (3H-Benzoimidazol-5-yl)-[(6R,10S)-5,6,7,8,9,10-hexahydro-3,10,12,12-tetramethyl-6,10-methano-imidazo[4,5-i][3]benzazocin-7-yl]-methanone] | 51
23 | Cn1cnc2cc3c(cc21)[C@]1(C)CCN(C(=O)c2ccc4nc[nH]c4c2)[C@H](C3)C1(C)C [Example 241, (3H-Benzoimidazol-5-yl)-[(6R,10S)-5,6,7,8,9,10-hexahydro-1,10,12,12-tetramethyl-6,10-methano-imidazo[5,4-i][3]benzazocin-7-yl]-methanone] | 204
24 | Cc1nc2cc3c(cc2n1C)[C@]1(C)CCN(C(=O)c2ccc4nc[nH]c4c2)[C@H](C3)C1(C)C [Example 242, (3H-Benzoimidazol-5-yl)-[(6R,10S)-5,6,7,8,9,10-hexahydro-1,2,10,12,12-pentamethyl-6,10-methano-imidazo[5,4-i][3]benzazocin-7-yl]-methanone] | 547
25 | Cc1nc2cc3c(cc2n1C)C[C@H]1N(C(=O)c2ccc4nc[nH]c4c2)CC[C@]3(C)C1(C)C [Example 243, (3H-Benzoimidazol-5-yl)-[(6R,10S)-5,6,7,8,9,10-hexahydro-2,3,10,12,12-pentamethyl-6,10-methano-imidazo[4,5-i][3]benzazocin-7-yl]-methanone] | 113
26 | C[C@@H]1[C@@H]2Cc3ccc(O)cc3[C@@]1(C)CCN2C(=O)c1ccc2nc[nH]c2c1 [Example 246, (3H-Benzoimidazol-5-yl)-[(2S,6S,11S)-8-hydroxy-6,11-dimethyl-1,2,5,6-tetrahydro-4H-2,6-methano-benzo[d]azocin-3-yl)-methanone] | 637

same assay, conditions: 1 hour at 37° C., pH 6.0, NADPH 200 μM, cortisone 80 nM, inhibition relative to carbenoxolone signal, read-out: 11β-HSD IC50

Row | Compound | pIC50
27 | C[C@H]1[C@H]2CC3=CC(C#N)CC=C3[C@]1(C)CCN2C(=O)c1ccc2nc[nH]c2c1 (stereo partly drawn) [Example 236, (2R,6R,11R)-3-(3H-Benzoimidazole-5-carbonyl)-6,11-dimethyl-1,2,3,4,5,6,8,9-octahydro-2,6-methano-benzo[d]azocine-9-carbonitrile] | 6.72
28 | O=C(c1ccc2nc[nH]c2c1)N1CCC2CC1Cc1c2[nH]c2ccccc12 (stereo not shown) [Example 245, (3H-Benzoimidazol-5-yl)-(2,3,4,5,6,7-hexahydro-2,6-methano-azocino[5,4-b]indol-3-yl)-methanone] | 6.59
